Measurements reported in ChEMBL document CHEMBL1177783, “Discovery of aminopyridines substituted with benzoxazole as orally active c-Met kinase inhibitors” (Bioorg Med Chem Lett, 2010).

What was measured:
[1] = target: Hepatocyte growth factor receptor (Homo sapiens, UniProt P08581); test: Inhibition of recombinant c-MET by HTRF assay
hERG (KCNH2) = hERG (KCNH2) (Homo sapiens, UniProt Q12809); test: Displacement of [3H]astemizole from human ERG expressed in HEK293 cells at 10 uM; conditions: HEK293 cells expressing human ERG, probe [3H]astemizole
[2] = Cmax in rat at 10 mg/kg, po; type: ADME, organism-based; set-up: dose 10 mg/kg, route oral; conditions: in vivo
[3] = AUC in rat at 10 mg/kg, iv; type: ADME, organism-based; set-up: dose 10 mg/kg, route intravenous; conditions: plasma
[4] = AUC in rat at 10 mg/kg, po; type: ADME, organism-based; set-up: dose 10 mg/kg, route oral; conditions: plasma
[5] = Clearance in rat at 10 mg/kg, iv; type: ADME, organism-based; set-up: dose 10 mg/kg, route intravenous; conditions: in vivo
[6] = Volume of distribution at steady state in rat at 10 mg/kg, iv; type: ADME, organism-based; set-up: dose 10 mg/kg, route intravenous; conditions: in vivo, read-out: Vdss
[7] = Oral bioavailability in rat at 10 mg/kg; type: ADME, organism-based; conditions: in vivo

Hepatocyte growth factor receptor, sequence (P08581 whole entry): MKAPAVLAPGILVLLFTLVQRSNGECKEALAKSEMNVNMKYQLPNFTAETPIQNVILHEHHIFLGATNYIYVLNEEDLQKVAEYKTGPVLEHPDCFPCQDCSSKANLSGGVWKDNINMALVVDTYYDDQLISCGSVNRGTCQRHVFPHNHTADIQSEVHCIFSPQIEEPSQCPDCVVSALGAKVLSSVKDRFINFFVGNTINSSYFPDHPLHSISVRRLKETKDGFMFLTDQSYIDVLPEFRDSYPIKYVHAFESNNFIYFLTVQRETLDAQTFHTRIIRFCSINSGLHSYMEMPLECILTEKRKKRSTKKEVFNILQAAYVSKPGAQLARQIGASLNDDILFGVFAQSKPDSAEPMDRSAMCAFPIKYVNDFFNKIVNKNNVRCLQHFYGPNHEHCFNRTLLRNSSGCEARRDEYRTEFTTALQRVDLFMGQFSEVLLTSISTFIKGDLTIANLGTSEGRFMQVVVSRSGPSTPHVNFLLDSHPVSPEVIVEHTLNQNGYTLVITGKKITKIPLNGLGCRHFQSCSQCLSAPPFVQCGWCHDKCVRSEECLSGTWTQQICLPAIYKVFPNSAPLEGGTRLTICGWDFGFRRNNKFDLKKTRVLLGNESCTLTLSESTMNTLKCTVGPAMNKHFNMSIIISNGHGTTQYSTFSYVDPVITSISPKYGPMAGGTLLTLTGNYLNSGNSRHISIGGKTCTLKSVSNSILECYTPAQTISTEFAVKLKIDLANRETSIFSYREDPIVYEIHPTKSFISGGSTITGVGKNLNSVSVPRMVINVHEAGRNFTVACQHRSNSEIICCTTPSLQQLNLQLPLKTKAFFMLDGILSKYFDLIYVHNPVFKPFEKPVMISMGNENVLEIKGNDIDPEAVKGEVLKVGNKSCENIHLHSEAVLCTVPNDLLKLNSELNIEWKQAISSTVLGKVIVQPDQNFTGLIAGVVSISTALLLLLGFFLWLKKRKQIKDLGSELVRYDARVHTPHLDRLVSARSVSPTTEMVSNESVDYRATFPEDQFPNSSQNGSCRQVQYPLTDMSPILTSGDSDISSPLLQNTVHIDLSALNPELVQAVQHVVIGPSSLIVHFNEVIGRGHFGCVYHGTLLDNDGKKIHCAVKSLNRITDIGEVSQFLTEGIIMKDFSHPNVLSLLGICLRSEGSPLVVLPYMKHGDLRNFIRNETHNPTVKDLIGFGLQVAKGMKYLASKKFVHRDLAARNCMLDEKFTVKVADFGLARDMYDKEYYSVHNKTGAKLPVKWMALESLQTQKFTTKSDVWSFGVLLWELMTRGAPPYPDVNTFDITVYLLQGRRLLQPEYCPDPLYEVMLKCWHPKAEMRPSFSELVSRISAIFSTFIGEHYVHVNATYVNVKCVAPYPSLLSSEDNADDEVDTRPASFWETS
hERG (KCNH2), sequence (Q12809 whole entry): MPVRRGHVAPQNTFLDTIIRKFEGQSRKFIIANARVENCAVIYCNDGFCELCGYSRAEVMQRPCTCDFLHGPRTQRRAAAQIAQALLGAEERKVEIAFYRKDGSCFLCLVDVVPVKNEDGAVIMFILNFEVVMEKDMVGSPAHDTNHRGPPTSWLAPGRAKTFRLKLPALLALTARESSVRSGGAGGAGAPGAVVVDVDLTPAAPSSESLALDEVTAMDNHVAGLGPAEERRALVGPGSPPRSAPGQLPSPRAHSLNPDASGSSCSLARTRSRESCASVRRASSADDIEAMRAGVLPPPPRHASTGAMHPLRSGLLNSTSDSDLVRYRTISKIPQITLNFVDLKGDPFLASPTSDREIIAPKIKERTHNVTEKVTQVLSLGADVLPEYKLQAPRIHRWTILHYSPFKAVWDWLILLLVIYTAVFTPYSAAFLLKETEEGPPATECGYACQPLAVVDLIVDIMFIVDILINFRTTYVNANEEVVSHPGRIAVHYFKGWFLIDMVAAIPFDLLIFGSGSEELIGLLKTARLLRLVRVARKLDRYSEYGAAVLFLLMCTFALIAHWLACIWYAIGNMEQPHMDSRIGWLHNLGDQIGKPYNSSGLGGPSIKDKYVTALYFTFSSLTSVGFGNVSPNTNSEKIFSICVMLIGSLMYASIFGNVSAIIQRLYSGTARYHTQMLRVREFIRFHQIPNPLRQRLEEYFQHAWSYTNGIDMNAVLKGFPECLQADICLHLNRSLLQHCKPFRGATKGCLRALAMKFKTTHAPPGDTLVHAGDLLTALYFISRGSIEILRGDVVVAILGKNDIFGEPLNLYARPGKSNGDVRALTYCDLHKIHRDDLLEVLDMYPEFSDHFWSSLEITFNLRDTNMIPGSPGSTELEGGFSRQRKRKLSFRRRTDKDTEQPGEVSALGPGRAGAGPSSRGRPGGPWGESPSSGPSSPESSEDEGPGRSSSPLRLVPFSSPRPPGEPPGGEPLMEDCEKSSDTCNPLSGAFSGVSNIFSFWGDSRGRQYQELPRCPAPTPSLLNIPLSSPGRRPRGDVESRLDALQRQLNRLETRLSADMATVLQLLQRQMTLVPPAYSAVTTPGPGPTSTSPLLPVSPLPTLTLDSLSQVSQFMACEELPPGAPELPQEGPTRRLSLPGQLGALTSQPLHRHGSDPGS

Row | IC50 [1] [nM] | SMILES | further results
1 | 357 | CCN(CC)C(=O)N1CCC(n2cc(-c3cnc(N)c(-c4nc5ccccc5o4)c3)cn2)CC1 | 
2 | 58 | COC(=O)N1CCC(n2cc(-c3cnc(N)c(-c4nc5ccccc5o4)c3)cn2)CC1 | 
3 | 371 | CS(=O)(=O)N1CCC(n2cc(-c3cnc(N)c(-c4nc5ccccc5o4)c3)cn2)CC1 | 
4 | 17 | COCC(=O)N1CCC(n2cc(-c3cnc(N)c(-c4nc5ccccc5o4)c3)cn2)CC1 | 
5 | 60 | CN(C)CC(=O)N1CCC(n2cc(-c3cnc(N)c(-c4nc5ccccc5o4)c3)cn2)CC1 | 
6 | 5200 | Nc1ncc(-c2ccncc2)cc1-c1nc2ccccc2o1 | 
7 | > 10000 | Nc1ncc(-c2cccnc2)cc1-c1nc2ccccc2o1 | 
8 | > 10000 | Nc1ncc(-c2ccccc2)cc1-c1nc2ccccc2o1 | 
9 | 2100 | Cn1cc(-c2cnc(N)c(-c3nc4ccccc4o3)c2)cn1 | inhibition at 10 µM (hERG (KCNH2)): 15%
10 | 430 | Nc1ncc(-c2cnn(C3CCOCC3)c2)cc1-c1nc2ccccc2o1 | 
11 | 80 | Nc1ncc(-c2cnn(C3CCNCC3)c2)cc1-c1nc2ccccc2o1 | 
12 | > 10000 | Cn1cc(-c2cncc(-c3nc4ccccc4o3)c2)cn1 | 
13 | 7 | CCC(=O)N1CCC(n2cc(-c3cnc(N)c(-c4nc5ccccc5o4)c3)cn2)CC1 | 
14 | 140 | Nc1ncc(-c2cnn(C3CCN(C(=O)c4ccccc4)CC3)c2)cc1-c1nc2ccccc2o1 | 
15 | 1300 | Nc1ncc(-c2cnn(CCO)c2)cc1-c1nc2ccccc2o1 | 
16 | 3 | CC(=O)N1CCC(n2cc(-c3cnc(N)c(-c4nc5ccccc5o4)c3)cn2)CC1.Cl | Cmax [2]: 600 ng/mL; AUC [3]: 5600 ng·h/mL; AUC [4]: 2700 ng·h/mL; clearance [5]: 30 mL/min/kg; Vd [6]: 2.4 L/kg; bioavailability [7]: 47%
17 | 26 | Nc1ncc(-c2cnn(C3CCN(C(=O)CO)CC3)c2)cc1-c1nc2ccccc2o1 | 
18 | > 10000 | c1ccc2oc(-c3cncc(-c4cnn(C5CCNCC5)c4)c3)nc2c1 | 
19 | > 10000 | CNc1ncc(-c2cnn(C)c2)cc1-c1nc2ccccc2o1 | 
20 | > 10000 | Cn1cc(-c2cnc(NCc3ccccc3)c(-c3nc4ccccc4o3)c2)cn1 | 
21 | > 10000 | CNc1ncc(-c2cnn(C3CCNCC3)c2)cc1-c1nc2ccccc2o1 | 
